Patent US11000050B2 (priority 2015, dated 2021)

Columns and labels:
[1] = tested on: Salmonella enteritidis PT4; parameters: species or system Ross 308 male broilers; details: in vivo
[2] = parameters: species or system Ross 308 male broilers; details: in vivo
[3] = in vivo

COc1cc(CNC(=O)CCCCC#Cc2ccccc2)ccc1O [phenylcapsaicin]
Salmonella counts (ranked) vs control group [1]: consistently lower | Salmonella counts vs control chickens on a diet without phenylcapsaicin [1]: numerically had lower | caecal colonization of Salmonella enteritidis PT4 [1]: not affected | differences in ranked numbers of Salmonella counts between control and 20 mg/kg treatment group [1]: highly significant | effective dose (most probable range) [1]: up to 20 mg/kg | next highest Salmonella value in caecal digesta [1]: 4.0×10^6 CFU/g | two highest Salmonella values in caecal digesta (considered outliers) [1]: 1.2×10^7 CFU/g | spleen weight [2]: did not affect | BWG with increasing dose level [3]: tendency towards a lower BWG | body weight (BW) vs 0, 20 or 28 mg/kg [3]: significantly lower | body weight gain (BWG) vs 0, 20 or 28 mg/kg [3]: significantly lower | daily feed intake [3]: no effect | feed conversion ratio vs other Salmonella inoculated treatments [3]: higher | feed intake [3]: did not affect | BWG ([3]; 36 mg/kg): numerically the lowest | FCR ([3]; 36 mg/kg): highest
